Test results published in US9169288B2, “Peptidomimetics and their application” (Instytut Medycyny Doswiadczalnej i Klinicznej im. Miroslawa …, priority 2012, dated 2015).
Read-outs that look alike come from different tables or passages of the source.

Columns and labels:
Details in all cases: mouse, at 4 hours
[1] = system: constipation induced by loperamide
Experimental: The mice were divided into three groups one as control and two administered with loperamide hydrochloride (5 mg/kg).

[2] = system: constipation induced by loperamide; remark: listed apart in the source
[3] = system: constipation induced by morphine
Experimental: The mice were divided into three groups one as control and two administered intraperitoneally with morphine hydrochloride (5 mg/kg).

CN(C)C(=O)C(CCN1CCC(O)(c2ccc(Cl)cc2)CC1)(c1ccccc1)c1ccccc1 [loperamide, reference compound]
wet weight of stools, opioid alone ([1]; loperamide hydrochloride 5 mg/kg alone, control group 200 mg): 15 mg | wet weight of stools, opioid alone ([2]; loperamide 5 mg/kg orally in 20% gum arabic alone, control group 200 mg): 22 mg

CN1CC[C@]23c4c5ccc(O)c4O[C@H]2[C@@H](O)C=C[C@H]3[C@H]1C5 [morphine, reference compound]
wet weight of stools, opioid alone ([3]; morphine hydrochloride 5 mg/kg intraperitoneally alone, control group 200 mg): 25 mg

Tyrosyl-D-arginyl-cinnamylpiperazine dihydrochloride [peptidomimetic 3]
stools relative to control group ([2]; loperamide 5 mg/kg with peptidomimetic 10 mg/kg in 20% gum arabic): 60% | wet weight of stools ([2]; loperamide 5 mg/kg with peptidomimetic 10 mg/kg in 20% gum arabic, control group 200 mg): 120 mg

tyrosyl-D-alanyl-glycyl-cinnamylpiperazine hydrochloride [peptidomimetic 1]
stools relative to control group ([1]; peptidomimetic 10 mg/kg orally 30 minutes before loperamide hydrochloride 5 mg/kg): 80% | wet weight of stools ([1]; peptidomimetic 10 mg/kg orally 30 minutes before loperamide hydrochloride 5 mg/kg, control group 200 mg): 160 mg

tyrosyl-D-threonyl-glycyl-phenylalanyl-cinnamylpiperazine hydrochloride [peptidomimetic 2]
reversal of morphine effect on stools ([3]; peptidomimetic orally 30 minutes before morphine hydrochloride 5 mg/kg intraperitoneally): fully reversed morphine effect
